Test results as given in patent EP0430194A2, “Aryl-alkyl-azoles substituted with many times unsaturated groups, process for their preparation and their use” (HOECHST AKTIENGESELLSCHAFT, priority 1989, dated 1991).

How the values were obtained:
[1] = system: Trichophyton mentagrophytes; experiment: Local in vivo efficacy, dermal treatment of guinea pigs infected with Trichophyton mentagrophytes; settings: Dermal 5 x 0,1 %; for Mykosen (Durchmesser in mm) Mittelwert (Standardabweich.): Meerschweinchen (Pirbright white), from day 3 after infection, n = 6; for Reduktion in %: Meerschweinchen, relative to Bifonazol = 100,0
Excerpt: Als Beispiel für die hohe lokale in vivo Wirksamkeit der erfindungsgemäßen Verbindungen werden Behandlungsergebnisse an Experimenten mit Trichophyton mentagrophytes infizierten Labortieren angeführt.
Zur Feststellung der lokalen Wirksamkeit wurde jeweils ein 450 - 500 g schweres Meerschweinchen (Stamm Pirbright white) mit 1,5 x 10⁴ Konidien/Tier in die Epidermis verteilt auf 6 Infektionspunkte, infiziert.
Die Behandlung der Tiere erfolgte dermal ab dem 3. Tag nach der Infektion an 5 aufeinander folgenden Tagen durch Aufbringen einer 0,1 %igen Präparatlösung auf 6 Infektionsstellen der Rückenseite.
Neben den mit den erfindungsgemäßen Substanzen behandelten Tieren wurde ein Tier mit der Referenzsubstanz Bifonazol behandelt, ein Tier blieb nach der Infektion unbehandelt.

[2] = system: freigesetzten Exoenzyme von Candida albicans; experiment: In vitro enzyme test: inhibition of released exoenzymes of Candida albicans blastoconidia on egg-yolk agar plate; assay type: cell-based; settings: Stamm 200/175
Excerpt: Als Beispiel für die Hemmung der pathogenen Phase dimorpher Hefezellen werden Ergebnisse eines in-vitro-Enzymtests angeführt, in welchen die prozentuale Hemmung freigesetzter Exoenzyme, insbesondere freigesetzter Lysophospholipase (Phospholipase B), als Maß für die Wirksamkeit bestimmt wird.
Zur Feststellung der Enzymhemmung wurde eine Suspension von Candida albicans Blastokonidien (Stamm 200/175), wobei die Keimdichte photometrisch auf eine Extinktion von 0,5 (500 nm) eingestellt war, mit Präparatelösung bzw. zur Kontrolle mit Lösungsmittellösung vermischt und zwar • a) 100 µl Präparatelösung (Suspension) + 900 µl Keimsuspension • b) 100 µl Lösungsmittel + 900 µl Keimsuspension
Jeweils 5 µl der 30 min bei 21°C inkubierten Blastokonidiensuspension wurden auf eine Agarplatte (Sabourand Agar mit Zusatz von 8 % Eigelb, 1 M NaCl, 5 mM CaCl₂) aufgetropft.
Die so beimpfte Platte wurde 3 Tage bei 37°C bebrütet.
Die Auswertung erfolgte derart, daß • 1. der Durchmesser (mm) der Candida albicans-Kolonie (behandelt und unbehandelt) sowie • 2. der Gesamtdurchmesser von Kolonie und Trübungshof, welcher durch Exoenzyme verursacht wurde (behandelt und unbehandelt) bestimmt wurde.
Aus der Bestimmung des Quotienten von Präparate- und Kontrollgruppe ergab sich ein Wert, der als Maß für die Enzymaktivität anzusehen war.

[3] = system: Phospholipase aus Leberzellen; settings: literature, Biochem. Pharmacol. 34, 521-24, 1985; cited from earlier work
[4] = Präparat-Konzentration 10 µg/ml
[5] = Präparat-Konzentration 50 µg/ml
[6] = Präparat-Konzentration 100 µg/ml

SMILES | Mykosen (Durchmesser in mm) Mittelwert (Standardabweich.) [1] | Reduktion in % [1] | Prozentuale Hemmung der freigesetzten Exoenzyme von Candida albicans in vitro [2, 4] | Prozentuale Hemmung der freigesetzten Exoenzyme von Candida albicans in vitro [2, 5] | Prozentuale Hemmung der freigesetzten Exoenzyme von Candida albicans in vitro [2, 6] | Hemmwirkung gegenüber Phospholipase aus Leberzellen [3]
CC(C)=CCC/C(C)=C\COC(Cn1ccnc1)c1ccc(Cl)cc1Cl (racemic) [Beispiel 2, (R,S)-1-(2,4-Dichlorphenyl)-1-(cis-3,7-dimethyl-2,6-octadien-1-oxy)-2-(imidazol-1-yl)-ethan] | 3,3 (0,5) mm | 139,3% | 41,2% | 100% | 100% | 
CC(C)=CCC/C(C)=C\COC(Cn1cncn1)c1ccc(Cl)cc1Cl (racemic) [Beispiel 5] | 2,6 (1,5) mm | 176,9% |  |  |  | 
CC(C)=CCC/C(C)=C\COC(CCn1ccnc1)c1cccs1 (racemic) [Beispiel 40] | 2,8 (1,7) mm | 164,2% |  |  |  | 
CC(C)=CCC/C(C)=C\COC(Cn1cncn1)c1ccc(Cl)s1 (racemic) [Beispiel 42] |  |  | 50,0% | 100% | 100% | 
CC(C)=CCC/C(C)=C\COC(Cn1ccnc1)c1ccccn1 (racemic) [Beispiel 46] | 2,8 (1,6) mm | 164,2% |  |  |  | 
CC(C)=CCC/C(C)=C\COC(Cn1ccnc1)c1ccco1 (racemic) [Beispiel 47] | 3,6 (0,8) mm | 127,7% |  |  |  | 
c1ccc(-c2ccc(C(c3ccccc3)n3ccnc3)cc2)cc1 (stereo not shown) [Bifonazol, reference compound] | 4,6 (1,5) mm | 100,0% |  |  |  | 
CC(C)NCC(O)COc1cccc2ccccc12 (stereo not shown) [Propranolol, reference compound] |  |  | 0% | 10% | 30% | Hemmwirkung zeigte
